# Data: ChEMBL document CHEMBL1212931, “Identification of a naturally occurring rexinoid, honokiol, that activates the retinoid X receptor” (J Nat Prod, 2010)
# Active and inactive are the calls of the source. The rule behind the calls is not given here.
# Tests used:
# RAW264.7 [1] = assay: Activation of RXR/LXR heterodimer in mouse RAW264.7 cells assessed as induction of ABCA1 mRNA expression by RT-PCR; assay type: cell-based
# [2] = target: T1, Retinoic acid receptor RXR-alpha (Mus musculus) (UniProt P28700); assay: Agonist activity at RXRalpha in mouse peritoneal macrophages assessed as ApoAI-mediated cholesterol efflux after 24 hrs […]; assay type: functional
# T1 sequence (whole entry): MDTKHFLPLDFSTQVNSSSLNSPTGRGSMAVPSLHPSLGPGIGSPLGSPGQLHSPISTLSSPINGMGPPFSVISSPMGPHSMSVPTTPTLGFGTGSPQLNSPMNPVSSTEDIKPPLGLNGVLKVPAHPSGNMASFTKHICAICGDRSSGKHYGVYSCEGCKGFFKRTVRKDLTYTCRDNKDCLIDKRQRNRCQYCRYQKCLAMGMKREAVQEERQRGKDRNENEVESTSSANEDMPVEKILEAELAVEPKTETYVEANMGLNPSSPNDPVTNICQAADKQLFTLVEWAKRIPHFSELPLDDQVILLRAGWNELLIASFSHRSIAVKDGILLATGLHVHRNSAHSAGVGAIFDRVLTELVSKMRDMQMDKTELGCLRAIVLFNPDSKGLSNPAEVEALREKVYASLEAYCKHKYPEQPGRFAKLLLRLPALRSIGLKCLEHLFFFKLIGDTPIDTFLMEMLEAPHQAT
# [3] = target: T2, Retinoic acid receptor RXR-alpha (Homo sapiens) (UniProt P19793); assay: Binding affinity to RXRalpha
# T2 sequence (whole entry): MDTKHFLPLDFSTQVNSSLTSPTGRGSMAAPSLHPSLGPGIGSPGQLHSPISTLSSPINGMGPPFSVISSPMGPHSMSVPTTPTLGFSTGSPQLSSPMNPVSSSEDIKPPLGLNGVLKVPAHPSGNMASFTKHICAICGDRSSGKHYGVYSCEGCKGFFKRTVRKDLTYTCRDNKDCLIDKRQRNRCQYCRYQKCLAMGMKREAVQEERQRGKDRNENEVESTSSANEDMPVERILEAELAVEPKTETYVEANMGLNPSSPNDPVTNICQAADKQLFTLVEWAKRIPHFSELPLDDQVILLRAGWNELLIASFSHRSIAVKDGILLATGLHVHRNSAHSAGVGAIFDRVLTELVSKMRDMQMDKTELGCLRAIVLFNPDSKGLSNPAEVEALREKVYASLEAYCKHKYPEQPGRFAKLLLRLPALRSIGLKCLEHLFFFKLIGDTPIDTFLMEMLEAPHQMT
# [4] = target: T3, Retinoic acid receptor RXR-alpha (Homo sapiens, UniProt P19793); assay: Agonist activity at RXRalpha in HEK293 cells assessed as transcriptional activation after 48 hrs by luciferase reporter gene assay; assay type: functional, cell-based
# T3 sequence (P19793 whole entry): T2 sequence (whole entry)
# [5] = target: T4, Oxysterols receptor LXR-alpha (Homo sapiens) (UniProt Q13133); assay: Agonist activity at LXRalpha in HEK293 cells assessed as transcriptional activation after 48 hrs by luciferase reporter gene assay; assay type: functional, cell-based
# T4 sequence (whole entry): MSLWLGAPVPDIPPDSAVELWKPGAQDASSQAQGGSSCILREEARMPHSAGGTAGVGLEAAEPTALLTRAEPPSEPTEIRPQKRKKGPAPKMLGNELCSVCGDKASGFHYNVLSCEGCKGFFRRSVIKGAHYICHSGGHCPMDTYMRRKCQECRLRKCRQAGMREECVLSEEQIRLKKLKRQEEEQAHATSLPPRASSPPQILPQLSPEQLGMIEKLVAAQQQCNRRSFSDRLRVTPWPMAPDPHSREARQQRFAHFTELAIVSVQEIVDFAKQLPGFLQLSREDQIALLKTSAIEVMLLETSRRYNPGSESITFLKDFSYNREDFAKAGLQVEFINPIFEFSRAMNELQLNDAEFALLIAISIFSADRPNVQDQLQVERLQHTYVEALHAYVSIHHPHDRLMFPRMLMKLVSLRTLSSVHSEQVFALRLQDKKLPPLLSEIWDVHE
# [6] = target: T5, Peroxisome proliferator-activated receptor delta (Homo sapiens) (UniProt Q03181); assay: Agonist activity at PPARdelta in HEK293 cells assessed as transcriptional activation after 48 hrs by luciferase reporter gene assay; assay type: functional, cell-based
# T5 sequence (whole entry): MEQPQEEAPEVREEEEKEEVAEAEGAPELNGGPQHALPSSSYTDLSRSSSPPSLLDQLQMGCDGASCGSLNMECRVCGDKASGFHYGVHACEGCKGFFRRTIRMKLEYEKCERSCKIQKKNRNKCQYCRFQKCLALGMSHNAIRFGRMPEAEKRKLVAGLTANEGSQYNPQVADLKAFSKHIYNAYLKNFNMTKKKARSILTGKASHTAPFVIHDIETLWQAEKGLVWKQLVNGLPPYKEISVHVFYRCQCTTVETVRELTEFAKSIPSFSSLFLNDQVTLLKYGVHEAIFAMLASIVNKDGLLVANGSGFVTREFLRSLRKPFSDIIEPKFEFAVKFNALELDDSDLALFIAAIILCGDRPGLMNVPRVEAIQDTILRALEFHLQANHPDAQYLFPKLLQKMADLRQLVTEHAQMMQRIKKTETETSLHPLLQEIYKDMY
# [7] = target: T6, Peroxisome proliferator-activated receptor gamma (Homo sapiens) (UniProt P37231); assay: Agonist activity at PPARgamma in HEK293 cells assessed as transcriptional activation after 48 hrs by luciferase reporter gene assay; assay type: functional, cell-based
# T6 sequence (whole entry): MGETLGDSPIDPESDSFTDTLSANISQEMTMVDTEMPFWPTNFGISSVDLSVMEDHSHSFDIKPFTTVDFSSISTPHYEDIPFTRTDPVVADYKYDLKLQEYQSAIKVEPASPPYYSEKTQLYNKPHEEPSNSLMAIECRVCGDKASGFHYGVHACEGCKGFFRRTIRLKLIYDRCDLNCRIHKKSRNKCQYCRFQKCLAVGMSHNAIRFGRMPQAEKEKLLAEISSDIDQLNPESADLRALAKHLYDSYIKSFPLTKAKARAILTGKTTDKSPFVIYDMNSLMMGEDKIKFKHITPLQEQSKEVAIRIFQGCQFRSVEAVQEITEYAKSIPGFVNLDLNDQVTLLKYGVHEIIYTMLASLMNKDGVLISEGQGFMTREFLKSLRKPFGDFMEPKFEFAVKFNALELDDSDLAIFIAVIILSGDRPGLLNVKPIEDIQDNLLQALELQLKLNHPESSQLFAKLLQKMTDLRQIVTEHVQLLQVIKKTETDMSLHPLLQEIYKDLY
# RAW264.7 [8] = assay: Activation of RXR/LXR heterodimer in mouse RAW264.7 cells assessed as induction of ABCG1 mRNA expression by RT-PCR; assay type: cell-based
# RAW264.7 [9] = assay: Activation of RXR/LXR heterodimer in mouse RAW264.7 cells assessed as induction of ABCG1 mRNA expression by RT-PCR RXR antagonist HX531; assay type: functional, cell-based
# RAW264.7 [10] = assay: Activation of RXR/LXR heterodimer in mouse RAW264.7 cells assessed as induction of ABCG1 mRNA expression by RT-PCR in presence of RXR antagonist HX531; assay type: functional, cell-based
# RAW264.7 [11] = assay: Activation of RXR/LXR heterodimer in mouse RAW264.7 cells assessed as induction of ABCG1 mRNA expression by RT-PCR in presence of 22(R)-hydroxycholesterol; assay type: cell-based
# [12] = target: T1, Retinoic acid receptor RXR-alpha (Mus musculus); assay: Agonist activity at RXRalpha in mouse peritoneal macrophages assessed as ApoAI-mediated cholesterol efflux in presence of 22(R)-hydroxycholesterol after 24 hrs […]; assay type: functional
Structure (SMILES),Activity (RAW264.7 [1]),Activity [2],Activity [3],also measured
C=C(c1ccc(C(=O)O)cc1)c1cc2c(cc1C)C(C)(C)CCC2(C)C,Dose-dependent effect,Active,–,–
CC(C)CCC[C@@H](C)CCC[C@@H](C)CCCC(C)CC(=O)O (stereo partly drawn),–,–,Active,–
CC(C)CC[C@@H](O)[C@@H](C)[C@H]1CC[C@H]2[C@@H]3CC=C4C[C@@H](O)CC[C@]4(C)[C@H]3CC[C@]12C,Dose-dependent effect,Active,–,–
CC/C=C\C/C=C\C/C=C\C/C=C\C/C=C\C/C=C\CCC(=O)O,–,–,Active,–
C=CCc1ccc(O)c(-c2ccc(O)c(CC=C)c2)c1 [HONOKIOL],Dose-dependent effect,Active,Active,EC50 [4]: 11.8 µM; Activity [5]: inactive; Activity [6]: inactive; Activity [7]: inactive; Activity (RAW264.7 [8]): Active; Activity (RAW264.7 [9]): inactive; Activity (RAW264.7 [10]): inactive; Activity (RAW264.7 [11]): Active; Activity [12]: inactive
